Assay results from patent US8969565B2, “Imidazo[1,2-b]pyridazine-based compounds, compositions comprising them, and methods of their use” (Lexicon Pharmaceuticals, Inc., priority 2012, dated 2015).

What was measured:
AAK1 [1] = biological target: T1, AAK1 (Homo sapiens, UniProt Q2M2I8); test: P81 filter plate assay; format: biochemical; conditions: full-length human AAK1, Mu2 substrate
T1 construct: HA; expressed in transfected cells; host or cells: HEK293F

AAK1 [2] = biological target: T1, AAK1; test: HEK281 cell-based assay (phospho-mu2 Western blot in transfected HEK293F cells); conditions: 3 hours incubation, read-out: CBA IC50
In short: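 HEK293F cells co-transfected with full-length human AAK1/HA and Flag/AP2M1 were treated next day with 5 compound concentrations (3-fold dilutions) in DMEM+0.5% FBS for 3 hours at 37° C. Lysates were Western blotted for phospho-mu2, with total mu2 detected by anti-Flag.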

T1 sequence (Q2M2I8 1-863 isoform Q2M2I8-2): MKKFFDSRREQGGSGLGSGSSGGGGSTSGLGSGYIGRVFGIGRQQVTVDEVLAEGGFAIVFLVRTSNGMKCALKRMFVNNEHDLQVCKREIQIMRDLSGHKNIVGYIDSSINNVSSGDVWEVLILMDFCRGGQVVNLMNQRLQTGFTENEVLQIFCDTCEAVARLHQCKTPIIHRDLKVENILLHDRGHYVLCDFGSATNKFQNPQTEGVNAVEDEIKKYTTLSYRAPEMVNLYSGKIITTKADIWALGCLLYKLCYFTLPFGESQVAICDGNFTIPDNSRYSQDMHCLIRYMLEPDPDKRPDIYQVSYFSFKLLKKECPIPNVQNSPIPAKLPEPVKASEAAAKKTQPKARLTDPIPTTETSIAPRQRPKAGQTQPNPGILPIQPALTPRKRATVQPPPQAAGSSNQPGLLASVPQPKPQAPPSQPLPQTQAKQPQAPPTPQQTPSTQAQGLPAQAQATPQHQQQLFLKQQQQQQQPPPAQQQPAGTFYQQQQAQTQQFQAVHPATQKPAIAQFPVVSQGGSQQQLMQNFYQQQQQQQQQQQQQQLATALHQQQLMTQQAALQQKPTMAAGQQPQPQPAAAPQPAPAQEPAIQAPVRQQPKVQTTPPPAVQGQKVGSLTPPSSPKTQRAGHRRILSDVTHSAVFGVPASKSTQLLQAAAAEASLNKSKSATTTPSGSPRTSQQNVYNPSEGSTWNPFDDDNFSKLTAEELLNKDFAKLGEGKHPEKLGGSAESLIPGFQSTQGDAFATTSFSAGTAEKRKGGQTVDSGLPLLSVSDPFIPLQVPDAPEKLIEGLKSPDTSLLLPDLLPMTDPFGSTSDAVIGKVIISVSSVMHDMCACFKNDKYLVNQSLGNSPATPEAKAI

Row | SMILES | IC50 (AAK1 [1]) | IC50 (AAK1 [2])
1 | COc1ncccc1-c1cnc2ccc(NC[C@@H]3CCC(=O)N3CCC(C)(C)C)nn12 [(S)-1-(3,3-dimethylbutyl)-5-(((3-(2-methoxypyridin-3-yl)imidazo[1,2-b]pyridazin-6-yl)amino)methyl)pyrrolidin-2-one] | ≤ 10 nM | ≤ 10 nM
2 | CC(C)(C)CCN1C(=O)CC[C@H]1CNc1ccc2ncc(-c3ccccc3)n2n1 [(S)-1-(3,3-dimethylbutyl)-5-(((3-phenylimidazo[1,2-b]pyridazin-6-yl)amino)methyl)pyrrolidin-2-one] | ≤ 10 nM | ≤ 1000 nM
3 | CC(=O)c1cnc2ccc(N3CCN(C(=O)[C@@H](N)C(C)C)CC3)nn12 [(S)-1-(4-(3-acetylimidazo[1,2-b]pyridazin-6-yl)piperazin-1-yl)-2-amino-3-methylbutan-1-one] | ≤ 10 nM | ≤ 100 nM
4 | CC1(OC(=O)N2CCC[C@H]2CNc2ccc3ncc(Br)n3n2)CCCC1 [(S)-1-methylcyclopentyl 2-(((3-bromoimidazo[1,2-b]pyridazin-6-yl)amino)methyl)pyrrolidine-1-carboxylate] | ≤ 10 nM | ≤ 1000 nM
5 | COc1ncccc1-c1cnc2ccc(N3CC[C@H](N(C)C(=O)OCC(F)(F)F)C3)nn12 [(S)-2,2,2-trifluoroethyl (1-(3-(2-methoxypyridin-3-yl)imidazo[1,2-b]pyridazin-6-yl)pyrrolidin-3-yl)(methyl)carbamate] | ≤ 10 nM | ≤ 100 nM
6 | CC(C)(C)NC(=O)N1CCC[C@H]1CNc1ccc2ncc(Br)n2n1 [(S)-2-(((3-bromoimidazo[1,2-b]pyridazin-6-yl)amino)methyl)-N-(tert-butyl)pyrrolidine-1-carboxamide] | ≤ 10 nM | ≤ 100 nM
7 | COc1ncccc1-c1cnc2ccc(N3CCN(C(=O)[C@@H](N)CC(C)C)CC3)nn12 [(S)-2-amino-1-(4-(3-(2-methoxypyridin-3-yl)imidazo[1,2-b]pyridazin-6-yl)piperazin-1-yl)-4-methylpentan-1-one] | ≤ 10 nM | ≤ 10 nM
8 | O=C(CC(F)(F)F)N1CCC[C@H]1CNc1ccc2ncc(-c3ccccc3)n2n1 [(S)-3,3,3-trifluoro-1-(2-(((3-phenylimidazo[1,2-b]pyridazin-6-yl)amino)methyl)pyrrolidin-1-yl)propan-1-one] | ≤ 10 nM | ≤ 10 nM
9 | CC(C)(C)CC(=O)N1CCC[C@H]1CNc1ccc2ncc(-c3ccncc3)n2n1 [(S)-3,3-dimethyl-1-(2-(((3-(pyridin-4-yl)imidazo[1,2-b]pyridazin-6-yl)amino)methyl)pyrrolidin-1-yl)butan-1-one] | ≤ 10 nM | ≤ 100 nM
10 | CC(C)CC(=O)N1CCC[C@H]1CNc1ccc2ncc(-c3cccc(C#N)c3)n2n1 [(S)-3-(6-(((1-(3-methylbutanoyl)pyrrolidin-2-yl)methyl)amino)imidazo[1,2-b]pyridazin-3-yl)benzonitrile] | ≤ 10 nM | ≤ 100 nM
11 | Cc1cc(-c2cnc3ccc(NC[C@@H]4CCCN4C(=O)CC(C)C)nn23)ccn1 [(S)-3-methyl-1-(2-(((3-(2-methylpyridin-4-yl)imidazo[1,2-b]pyridazin-6-yl)amino)methyl)pyrrolidin-1-yl)butan-1-one] | ≤ 10 nM | ≤ 100 nM
12 | Cc1cccc(-c2cnc3ccc(NC[C@@H]4CCCN4C(=O)CC(C)C)nn23)c1 [(S)-3-methyl-1-(2-(((3-(m-tolyl)imidazo[1,2-b]pyridazin-6-yl)amino)methyl)pyrrolidin-1-yl)butan-1-one] | ≤ 10 nM | ≤ 1000 nM
13 | CC(C)CC(=O)N1CCC[C@H]1CNc1ccc2ncc(-c3ccccc3)n2n1 [(S)-3-methyl-1-(2-(((3-phenylimidazo[1,2-b]pyridazin-6-yl)amino)methyl)pyrrolidin-1-yl)butan-1-one] | ≤ 10 nM | ≤ 100 nM
14 | CC(C)CC(=O)N1CCC[C@H]1CNc1ccc2ncc(-c3ccc(C#N)cc3)n2n1 [(S)-4-(6-(((1-(3-methylbutanoyl)pyrrolidin-2-yl)methyl)amino)imidazo[1,2-b]pyridazin-3-yl)benzonitrile] | ≤ 10 nM | ≤ 10 nM
15 | CC(C)(C)CCN1C(=O)CC[C@H]1CNc1ccc2ncc(-c3ccc(CN)cc3)n2n1 [(S)-5-(((3-(4-(aminomethyl)phenyl)imidazo[1,2-b]pyridazin-6-yl)amino)methyl)-1-(3,3-dimethylbutyl)pyrrolidin-2-one] | ≤ 10 nM | ≤ 100 nM
16 | CC(C)CCN1C(=O)CC[C@H]1CNc1ccc2ncc(-c3ccc(CN)cc3)n2n1 [(S)-5-(((3-(4-(aminomethyl)phenyl)imidazo[1,2-b]pyridazin-6-yl)amino)methyl)-1-isopentylpyrrolidin-2-one] | ≤ 10 nM | ≤ 100 nM
17 | CC(C)(C)CCN1C(=O)CC[C@H]1CNc1ccc2ncc(Br)n2n1 [(S)-5-(((3-bromoimidazo[1,2-b]pyridazin-6-yl)amino)methyl)-1-(3,3-dimethylbutyl)pyrrolidin-2-one] | ≤ 10 nM | ≤ 100 nM
18 | COc1ccccc1-c1cnc2ccc(NC[C@@H]3CCCN3C(=O)NC(C)(C)C)nn12 [(S)-N-(tert-butyl)-2-(((3-(2-methoxyphenyl)imidazo[1,2-b]pyridazin-6-yl)amino)methyl)pyrrolidine-1-carboxamide] | ≤ 10 nM | ≤ 100 nM
19 | CC(C)(C)NC(=O)N1CCC[C@H]1CNc1ccc2ncc(-c3ccncc3)n2n1 [(S)-N-(tert-butyl)-2-(((3-(pyridin-4-yl)imidazo[1,2-b]pyridazin-6-yl)amino)methyl)pyrrolidine-1-carboxamide] | ≤ 10 nM | ≤ 100 nM
20 | CC(C)(C)NC(=O)N1CCC[C@H]1CNc1ccc2ncc(-c3ccccc3)n2n1 [(S)-N-(tert-butyl)-2-(((3-phenylimidazo[1,2-b]pyridazin-6-yl)amino)methyl)pyrrolidine-1-carboxamide] | ≤ 10 nM | ≤ 100 nM
21 | COc1ccccc1-c1cnc2ccc(NC[C@@H]3CCCN3C(=O)NC3CCCC3)nn12 [(S)-N-cyclopentyl-2-(((3-(2-methoxyphenyl)imidazo[1,2-b]pyridazin-6-yl)amino)methyl)pyrrolidine-1-carboxamide] | ≤ 10 nM | ≤ 1000 nM
22 | CC(C)(C)CNC(=O)N1CCC[C@H]1CNc1ccc2ncc(-c3ccccc3)n2n1 [(S)-N-neopentyl-2-(((3-phenylimidazo[1,2-b]pyridazin-6-yl)amino)methyl)pyrrolidine-1-carboxamide] | ≤ 10 nM | ≤ 100 nM
23 | CC(C)(C)OC(=O)N1CCC[C@H]1CNc1ccc2ncc(C(F)F)n2n1 [(S)-Tert-butyl 2-(((3-(difluoromethyl)imidazo[1,2-b]pyridazin-6-yl)amino)methyl)pyrrolidine-1-carboxylate] | ≤ 10 nM | ≤ 1000 nM
24 | COc1ccccc1-c1cnc2ccc(NC[C@@H]3CCCN3C(=O)OC3CCC3)nn12 [(S)-cyclobutyl 2-(((3-(2-methoxyphenyl)imidazo[1,2-b]pyridazin-6-yl)amino)methyl)pyrrolidine-1-carboxylate] | ≤ 10 nM | ≤ 100 nM
25 | O=C(OC1CCC1)N1CCC[C@H]1CNc1ccc2ncc(-c3ccncc3)n2n1 [(S)-cyclobutyl 2-(((3-(pyridin-4-yl)imidazo[1,2-b]pyridazin-6-yl)amino)methyl)pyrrolidine-1-carboxylate] | ≤ 10 nM | ≤ 10 nM
